Data on one compound can be found in article PMC3229521, “Engineering Genetically Encoded Nanosensors for Real-Time In Vivo Measurements of Citrate Concentrations” (PLoS ONE, 2011).

Molecules are shown by their SMILES. Counter-ions that a name gives are not always drawn.

A word on the Kd: it is the free concentration of one partner at which half of the binding sites on the other are occupied at equilibrium, for simple one-to-one binding.

Holding throughout (test): Citrate titration of purified FRET nanosensors in a fluorescence plate reader (excitation 433 nm, Venus/CFP emission ratio 530/488 nm) in 20 mM MOPS, 20 mM NaCl, pH 7, fitted to a single site binding curve.
What all share (conditions): n = 2

One test has as its target T1, CIT50μ (Klebsiella pneumoniae, UniProt P52687, R92A).
T1 construct: gene citA; CitA residues 6-130 inserted between CFP and Venus (pGW1, pRSET-based), His-tag purified
T1 sequence (P52687 49-173 R92A): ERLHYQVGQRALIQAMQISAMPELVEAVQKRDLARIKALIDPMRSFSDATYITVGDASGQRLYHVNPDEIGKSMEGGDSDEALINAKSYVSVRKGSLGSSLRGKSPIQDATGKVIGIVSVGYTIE
As for the experimental part: (§1) Next, we thoroughly tested the newly created nanosensor CFP-CitA6-130-Venus in vitro. We determined the binding properties by mixing the sensor with 0.5 to 1000 µM citrate. The obtained ratios were fitted to a single site binding curve as described in the methods section. We determined the KD, the ligand concentration at half-maximal saturation, to be 8 µM, which is very close to the value determined by Gerharz et al (2003) using isothermal titration calorimetry to characterize the purified protein [25]. The reproducibility between different batches of proteins extraction was excellent, with ratios in general not differing by more than 5%. A crucial feature for in vivo application is specificity. We thus exposed the nanosensor to a variety of structurally related organic acids including isocitrate, aconitate, α-ketoglutarate, succinate and pyruvate in presence or absence of citrate. […] In the case of isocitrate, we observed an effect only at concentrations above 1 mM (Figure 2 B) in absence of citrate, which by far exceeds the concentration typically observed by metabolomics in microbes. Also, the apparent affinity for citrate was not modified in the presence of isocitrate or aconitate (data not shown), which excludes competitive binding. After confirming the high specificity of the sensor we tested pH stability, which is crucial when aiming to study certain intracellular compartments (Figure S2 A). […] Therefore, the new nanosensor should be functional in most compartments, however it is not suitable for highly acidic compartments such as endosomes or vacuoles. We also tested the effect of high salt concentrations as typically observed in cells. […] Thus, as has been previously observed when comparing nanosensors in vitro and in vivo [13], [23], we can expect the observed fluorescence intensity ratio in vivo to be lower than under assay conditions. The KD and the dynamic range, however, were not altered, and thus relative changes in citrate concentrations can still be monitored in vivo.
(§2) The natural receptor CitA is highly sensitive and detects low concentrations of citrate in the periplasmic environment and thus has a very high affinity for its substrate. For application as an intracellular sensor a saturation concentration of approximately 100 µM appeared too low given the estimates of intracellular concentrations of citrate by metabolomics approaches in the mid micromolar to low millimolar range [3]. We therefore engineered the affinity of the nanosensor for in vivo applications. Gerharz et al systematically investigated residues of the CitA sensor domain involved in citrate binding. Replacement of positively charged amino acids with alanine led to decreased affinity. We chose five of the reported point mutations and introduced them into the sensor CitA6-130. We determined binding constants and total FRET ratios from two independent extractions (Table 1). The binding constants were qualitatively in good agreement with the observations of Gerharz et al., though in some cases we observed a much larger decrease of affinity. This might be due to the different measurement techniques, a different behaviour of the truncated and sandwiched protein compared to the isolated full-length protein, or to the minor differences we found in the sequence compared to the published Klebsiella CitA gene (sequence of the final sensor can be found in Document S1). […] Decreasing the affinity for the designated substrate bears the risk of also reducing specificity. We therefore tested all mutated sensors for binding of isocitrate and aconitate, the most closely related compounds. […] Also, pH and salt sensitivity were similar to the original sensor (data not shown).
(§3) All in vitro assays were performed in a TECAN Infinite 200 plate reader (TECAN, Austria) in 96 well format (modified from). Proteins, reagents and ligands were dissolved in assay buffer (20 mM Mops, 20 mM NaCl, pH 7 unless specified otherwise). […]

Test [1] addresses T2, CIT8μ (CFP-CitA6-130-Venus) (Klebsiella pneumoniae, UniProt P52687).
T2 construct: gene citA; CitA residues 6-130 inserted between CFP and Venus (pGW1, pRSET-based), His-tag purified
As for the experimental part: as §1, §2, §3

Another test has as its target T3, CIT0.5m (Klebsiella pneumoniae, UniProt P52687, K120A/R92A).
T3 construct: gene citA; CitA residues 6-130 inserted between CFP and Venus (pGW1, pRSET-based), His-tag purified
T3 sequence (P52687 49-173 R92A/K120A): T1 sequence (P52687 49-173 R92A)
As for the experimental part: as §1, §2, §3

The target of another test is T4, CIT32μ (Klebsiella pneumoniae, UniProt P52687, K135A).
T4 construct: gene citA; CitA residues 6-130 inserted between CFP and Venus (pGW1, pRSET-based), His-tag purified
T4 sequence (P52687 49-173 K135A): T1 sequence (P52687 49-173 R92A)
As for the experimental part: as §1, §2, §3

The target in a further test is T5, CIT1.8m (Klebsiella pneumoniae, UniProt P52687, R150A).
T5 construct: gene citA; CitA residues 6-130 inserted between CFP and Venus (pGW1, pRSET-based), His-tag purified
T5 sequence (P52687 49-173 R150A): T1 sequence (P52687 49-173 R92A)
As for the experimental part: as §1, §2, §3

The target of another test is T6, CIT96μ (Klebsiella pneumoniae, UniProt P52687, K120A).
T6 construct: gene citA; CitA residues 6-130 inserted between CFP and Venus (pGW1, pRSET-based), His-tag purified
T6 sequence (P52687 49-173 K120A): T1 sequence (P52687 49-173 R92A)
As for the experimental part:
as §1, §2, §3

T2 sequence (P52687 50-174): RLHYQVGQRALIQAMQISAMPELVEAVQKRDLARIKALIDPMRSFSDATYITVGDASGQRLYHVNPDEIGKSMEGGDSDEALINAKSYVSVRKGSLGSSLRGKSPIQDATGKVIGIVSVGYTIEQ

In the case of `O=C(O)CC(O)(CC(=O)O)C(=O)O` [citrate, citrate (citric acid)], the dissociation constant Kd on CIT50μ was determined as 50 µM; in test [1], 8 µM; on CIT0.5m, 470 µM; on CIT32μ, 32 µM; at CIT1.8m it was 1760 µM; on CIT96μ, 96 µM.
